Test results published in PubChem BioAssay (NCI).
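Method: 48-hour compound exposure of cells in 96-well plates, five concentrations, linear interpolation of endpoints. At the GI50, growth is halved. Definition used: TGI = concentration required for complete inhibition of growth.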

Legend:
Test in all cases: NCI-60 cell line screen, 48 h
[1] = system: HOP-62 NSCLC
[2] = system: SF-295 CNS
[3] = system: HCT-15 colon
[4] = system: SK-MEL-5 melanoma
[5] = system: SNB-75 CNS
[6] = system: SNB-19 CNS
[7] = system: KM12 colon
[8] = system: PC-3 prostate
[9] = system: MDA-MB-231 breast
[10] = system: OVCAR-3 ovarian
[11] = system: T-47D breast

| SMILES | TGI [1] | TGI [2] | TGI [3] | TGI [4] | TGI [5] | TGI [6] | TGI [7] | TGI [8] | TGI [9] | TGI [10] | TGI [11] | GI50 [8] | GI50 [3] | GI50 [4] | GI50 [9] | GI50 [5] | GI50 [6] | GI50 [7] | GI50 [11] |
| --- | --- | --- | --- | --- | --- | --- | --- | --- | --- | --- | --- | --- | --- | --- | --- | --- | --- | --- | --- |
| CC1CC(c2ccc([N+](=O)[O-])cc2)=Nc2ccccc2S1=O (centres undefined) | 75 µM | 55.2 µM | 28.1 µM | 37.1 µM | 53.2 µM | 38.5 µM | 26.7 µM | – | – | – | – | – | – | – | – | – | – | – | – |
| Cc1ccc(C(=O)N/N=C(\N=Nc2ccccc2)c2ccc(N(CCC#N)CCC#N)cc2C)cc1 | 52.9 µM | > 100 µM | > 100 µM | > 100 µM | > 100 µM | > 100 µM | > 100 µM | > 100 µM | > 100 µM | > 100 µM | > 100 µM | – | – | – | – | – | – | – | – |
| O=c1[nH]c(=S)c2[nH]c(=O)n(-c3ccccc3)c2[nH]1 | > 100 µM | > 100 µM | > 100 µM | > 100 µM | – | > 100 µM | > 100 µM | > 100 µM | > 100 µM | > 100 µM | – | – | – | – | – | – | – | – | – |
| COc1ccc2oc3c(ccc[n+]3C)c(=O)c2c1 | > 100 µM | > 100 µM | > 100 µM | > 100 µM | > 100 µM | > 100 µM | > 100 µM | > 100 µM | > 100 µM | > 100 µM | > 100 µM | – | – | – | – | – | – | – | – |
| CC(=O)O[C@@H]1CN(S(=O)(=O)c2ccc(C)cc2)C[C@@H]1C1CCCCC1 | 66.7 µM | > 100 µM | > 100 µM | 45.8 µM | 44.4 µM | > 100 µM | 29.8 µM | 46.4 µM | – | 28.2 µM | > 100 µM | – | – | – | – | – | – | – | – |
| O=C1NC(=O)C2(CCc3ccc(N(CCCl)CCCl)cc32)N1 (centres undefined) | 35.5 µM | > 61.5 µM | 49 µM | 26.6 µM | 26.3 µM | > 84.7 µM | > 84.1 µM | – | – | 41.4 µM | – | – | – | – | – | – | – | – | – |
| C/C=C1/C(=O)O[C@]23C=C[C@@H]4C(C(=O)OC)=CO[C@H](O[C@@H]12)[C@@H]43 | 22 µM | 5.24 µM | 4.66 µM | 4.2 µM | 7.38 µM | 10.3 µM | 6.12 µM | – | – | 3.95 µM | – | – | – | – | – | – | – | – | – |
| COc1cc2c(cc1O)N=C[C@@H]1CCC(O)N1C2=O (mixture of isomers) | 2.91 µM | 5.77 µM | 6.44 µM | 1.83 µM | 3.26 µM | 147 µM | 17.9 µM | – | – | 1.49 µM | – | – | – | – | – | – | – | – | – |
| Nc1ccc2c(c1)S(=O)(=O)c1cc(N)ccc1-2 | > 100 µM | > 100 µM | > 100 µM | > 100 µM | – | > 100 µM | > 100 µM | > 100 µM | > 100 µM | > 100 µM | > 100 µM | – | – | – | – | – | – | – | – |
| O=c1ccc2nc3ccc(O)cc3oc-2c1 | > 100 µM | > 100 µM | > 100 µM | 2.95 µM | 22 µM | > 100 µM | > 62.7 µM | > 100 µM | > 100 µM | > 85.7 µM | > 100 µM | – | – | – | – | – | – | – | – |
| CC(CNc1nc(Nc2ccc(Cl)c(Cl)c2)nc(C(Cl)(Cl)Cl)n1)N(C)C (centres undefined) | – | – | 3.15 µM | 2.98 µM | 4.7 µM | 3.18 µM | 3.14 µM | 3.84 µM | 1.42 µM | – | 4.44 µM | 1760 nM | 1680 nM | 1630 nM | 307 nM | 1530 nM | 1710 nM | 1700 nM | 1910 nM |
